Laboratory results published in article doi:10.1101/252379v1 (biorxiv, 2018).

Tests used:
Sir2La [1] = target: T1, Sir2La (Lactobacillus acidophilus, UniProt Q5FMQ6); assay: fluorogenic deacylase assay; type: biochemical; details: read-out: % residual activity at 50 μM
T1 sequence (Q5FMQ6 1-239): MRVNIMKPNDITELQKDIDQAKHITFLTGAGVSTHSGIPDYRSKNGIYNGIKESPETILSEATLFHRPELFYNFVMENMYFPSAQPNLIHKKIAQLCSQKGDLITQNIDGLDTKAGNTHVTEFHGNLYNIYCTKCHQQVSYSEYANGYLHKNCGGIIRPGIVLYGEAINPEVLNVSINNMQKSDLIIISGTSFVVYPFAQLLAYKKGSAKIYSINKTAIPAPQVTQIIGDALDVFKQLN

Sir2La [2] = target: T1, Sir2La; assay: end-point fluorogenic deacylase assay; type: biochemical
Sir2La [3] = target: T1, Sir2La; assay: biochemical; details: 6 IC50 (µM), continuous, continuous assay

remaining activity at 50 µM (Sir2La [1]) [%]	IC50 (Sir2La [2]) [µM]	IC50 (Sir2La [3]; Ac-LGKac-AMC (2b)) [µM]	IC50 (Sir2La [3]; Ac-LGKpro-AMC (2c)) [µM]	SMILES
77				CNC(=S)NCCCC[C@H](NC(=O)OCc1ccccc1)C(=O)N[C@@H](Cc1c[nH]c2ccccc12)C(=O)NC(C)C [compound 7, thiourea 7]
	100 ± 30			Cc1ccc(C(=O)Nc2ccc(S(=O)(=O)O)c3cc(S(=O)(=O)O)cc(S(=O)(=O)O)c23)cc1NC(=O)c1cccc(NC(=O)Nc2cccc(C(=O)Nc3cc(C(=O)Nc4ccc(S(=O)(=O)O)c5cc(S(=O)(=O)O)cc(S(=O)(=O)O)c45)ccc3C)c2)c1 [suramin]
	15 ± 2	5.8 ± 0.1	12	CC(=S)NCCCC[C@H](NC(=O)OCc1ccccc1)C(=O)N[C@@H](Cc1c[nH]c2ccccc12)C(=O)NC(C)C [compound 6, thioacetamide 6]
	350 ± 70			NC(=O)c1cccnc1 [nicotinamide]
